Experimental findings from patent US20220265845A1, “AMINOTHIOLESTER COMPOUNDS AND USES THEREOF” (ADVANCED BIODESIGN, priority 2019, published 2022) are described below.

Experiment [1] concerns the target T1, Human recombinant ALDH1A2 (Homo sapiens, UniProt O94788).
T1 construct: purchased Creative BioMart, NY, USA
T1 sequence (O94788 1-518): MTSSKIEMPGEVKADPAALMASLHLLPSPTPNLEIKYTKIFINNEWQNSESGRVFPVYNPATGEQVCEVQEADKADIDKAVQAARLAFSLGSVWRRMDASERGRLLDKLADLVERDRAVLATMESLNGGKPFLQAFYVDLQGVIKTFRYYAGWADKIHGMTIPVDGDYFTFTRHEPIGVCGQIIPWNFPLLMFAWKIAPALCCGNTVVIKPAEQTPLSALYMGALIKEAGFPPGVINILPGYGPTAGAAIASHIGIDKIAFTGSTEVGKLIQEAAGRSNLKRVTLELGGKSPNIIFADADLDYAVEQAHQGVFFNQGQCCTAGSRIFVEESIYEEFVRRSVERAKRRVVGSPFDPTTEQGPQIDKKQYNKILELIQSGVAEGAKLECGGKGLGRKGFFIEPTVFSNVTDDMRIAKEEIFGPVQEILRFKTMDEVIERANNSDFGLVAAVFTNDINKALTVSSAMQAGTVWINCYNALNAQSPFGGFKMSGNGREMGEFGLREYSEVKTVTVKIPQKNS
The experiment is described as follows: Enzymatic assay with human recombinant ALDH (NADH fluorescence), IC50. The format is biochemical. The note with it: substrate Hexanal, NAD+, 37° C. On the procedure:
(§1) Human recombinant ALDH1A1, ALDH1 A2, ALDH1A3, ALDH2 (Creative BioMart, NY, USA) were prepared at 1 mg/mL. The enzymatic reactions were performed using saturating concentrations of substrate. To test the enzymatic activity of the enzymes, 10 μL of enzyme was added into a reaction buffer containing 50 mM HEPES pH 7.2, 30 mM MgCl2, plus 20 mM NAD^+ cofactor and 2 mM Hexanal (Sigma-Aldrich, St. Louis, Mo., USA) in the presence or absence of the different tested compounds. Internal standards were prepared with Nicotinamide adenine dinucleotide reduce form (NADH, 500 μM, Sigma-Aldrich) in Reaction Buffer (50 mM HEPES pH 7.2, 30 mM MgCl2).
(§2) Time-dependent inhibition assays were performed for 0-2-5-10-15-20-30-45-60 min at 37° C. in 1 mL-quartz cuvette. The formation of NADH was monitored, reading samples at excitation wavelength=340 nm/emission wavelength=460 nm (fluorescence) for at least 600 sec using Cary Eclipse Varian fluorimeter.
Negative control consisted in the same reactions except that enzyme was not added (enzyme blank). To determine the slope for enzyme blank and calculate product concentration (Unit of fluorescence) the following formulae was used: […]
where Cst is the standard NADH concentration, Fst is the standard fluorescence and dF/dt is the slope of the time dependent fluorescence (S. Sotobodowska et al, 2012). The specific activity of the enzymes (μmol/min·mg-U/mg) in the absence of presence of inhibitors was calculated as follows: […]

Experiment [2] concerns ALDH class 1 recombinant enzymes. As to the kind of experiment: Comparison with DIMATE on ALDH class 1 recombinant enzymes. It is filed as biochemical, human. To be noted: from IC50 of Table 4. The method, then:
as §1, §2
The kinetic data are expressed as the mean±standard error from three independent determination. Kinact/Ki was determined from Kobs versus concentration of the inhibitor [I] plots. […] The Kobs were obtained from negative exponential fit using non-linear regression program GraFit 5.0 (Erithacus software).

A further experiment concerns HL-60. As to the kind of experiment: Cell viability assay (Resazurin), cytotoxicity in HL60 cells. The format is cell-based. The note with it: Homo sapiens, HL-60, read-out: IC50 at 48 h, 48 hours of incubation. On the procedure:
Cell lines. Leukemic cell line, HL-60 (derived from a person with AML-M2), was used for determination of drug efficacy. Cells were obtained from the European Collection of Cell Cultures (ECACC). All cells were cultivated in appropriate media according to supplier recommendations.
Cell Viability assay, 96-well format. Cells were seeded into 96-well cell culture plates at concentrations required to ensure approximately 80% confluence in control (untreated cells) at the end of experiment (0.5×10^4-5×10^4 cell/well).
The sensitivity towards compounds according to the invention was determined using different concentrations of each compound ranging from 0.5 to 100 μM (0.5, 1, 2, 5, 10, 15, 20, 25, 30, 40, 50, 100 μM). Following 48 hours of incubation at 37° C. in a humidified atmosphere containing 5% CO2, the growth-inhibitory effect of compounds was analyzed using Resazurin, according to manufactures instructions.
To ensure good data quality and to minimize impact of pipetting errors, each compounds concentration was assessed based on mean fluorescence intensity from 8 separate wells. Compounds response were quantified by the half maximal inhibitory concentration (IC50) for each particular cell line, and determined by non-linear regression analysis of log-dose/response curves.
Statistical Analysis. Values were expressed as mean±SD or frequencies and proportions. Cell viability curves were determined using four parameter regression line. Differences between groups were determined by unpaired t test, Chi-square, Fisher's exact test or ANOVA, where appropriate. P<0.05 was considered statistically significant. Analysis was performed using GraphPad prism version 5.0 (GraphPad software, San Diego Calif. USA).

Take `CSC(=O)C#CC(C)(C)N(C)CCOCc1ccccc1` [Example 3, S-methyl 4-[2-benzyloxyethyl(methyl)amino]-4-methyl-pent-2-ynethioate]: the half-inhibitory concentration (IC50) – broadly, the concentration that inhibits the measured activity by half – in experiment [1] amounted to 0.568 ± 0.09 µM; in the experiment with HL-60, 1.17 µM. Besides, the “Inhibition of the ALDH class 1 enzymes compared with DIMATE” value in experiment [2] is recorded as “higher inhibition”.
Turning to `CSC(=O)C#CC(C)(C)N(C)CCOCc1ccc(C)c(C)c1` [Example 5, S-methyl 4-[2-[(3,4-dimethylphenyl)methoxy]ethyl-methyl-amino]-4-methyl-pent-2-ynethioate], the IC50 in experiment [1] amounted to 1.3 ± 0.2 µM; in the experiment with HL-60 it was 4.72 µM. In addition, in experiment [2], the “Inhibition of the ALDH class 1 enzymes compared with DIMATE” value is recorded as “higher inhibition”.
On to `CSC(=O)C#CC(C)(C)N(C)C` [DIMATE, S-methyl 4-(dimethylamino)-4-methylpent-2-ynethioate, reference compound], for which the IC50 in experiment [1] worked out at 18 ± 4 µM.
